Measured values from patent US6150393A (priority 1999, dated 2000).

Key:
[1] = rodents; cited from earlier work
[2] = system: human mutated 5HT2A receptor, AP-3; assay: Receptor-mediated inositol phosphate (IP3) accumulation, AP-3; format: cell-based
Procedure: On day one, 1×10^7 293 cells per 150 mm plate were plated out. On day two, two reaction tubes were prepared (the proportions to follow for each tube are per plate): tube A was prepared by mixing 20 μg DNA (e.g., pCMV vector; pCMV vector AP-1 cDNA, etc.) in 1.2 ml serum free DMEM (Irvine Scientific, Irvine, Calif.); tube B was prepared by mixing 120 μl lipofectamine (Gibco BRL) in 1.2 ml serum free DMEM. Tubes A and B were then admixed by inversions (several times), followed by incubation at room temperature for 30-45 min. The admixture is referred to as the "transfection mixture". Plated 293 cells were washed with 1×PBS, followed by addition of 10 ml serum free DMEM. 2.4 ml of the transfection mixture was then added to the cells, followed by incubation for 4 hrs at 37° C./5% CO2. On day 3, cells were trypsinized and counted, followed by plating of 1×10^6 cells/well (poly D-lysine treated 12-well plates). Cells were permitted to adhere to the wells, followed by one wash with 1×PBS. Thereafter, 0.5 μCi ^3 H-inositol in 1 ml inositol-free DMEM was added per well. Protocol B.
On day 4, the cells were washed with 0.5 ml PBS and then 0.45 ml of assay medium was added containing inositol-free/serum free media, 10 μM pargyline, 10 mM lithium chloride, or 0.4 ml of assay medium and 50 ul of 10× ketanserin (ket) to a final concentration of 10 μM. The cells were then incubated for 30 minutes at 37° C. Then the cells were washed with 0.5 ml PBS and 200 ul of fresh/ice cold stop solution (1M KOH; 18 mM Na-borate; 3.8 mM EDTA) was added/well. The solution was kept on ice for 5-10 minutes or until the cells were lysed and then neutralized by 200 μl of fresh/ice cold neutralization sol. (7.5% HCL). The lysate was then transferred into 1.5 ml microcentrifuge tubes and 1 ml of chloroform/methanol (1:2) was added/tube. The solution was vortexed for 15 seconds and the upper phase was applied to a Biorad AG1-X8 anion exchange resin (100-200 mesh). The resin was washed with water and 0.9 ml of the upper phase was loaded onto the column. The column was washed with 10 mls of 5 mM myo-inositol and 10 ml of 5 mM Na-borate/60 mM Na-formate. The inositol trisphosphates were eluted into scintillation vials containing 10 ml of scintillation cocktail with 2 ml of 0.1 M formic acid/1 M ammonium formate. The columns were regenerated by washing with 10 ml of 0.1 M formic acid/3M ammonium formate and rinsed twice with dd H2 O and stored at room temperature in water.
Candidate compound identified in the assays of Examples 9a-9c were then evaluated for inositol phosphate accumulation, following the protocol of Example 5 ([…] expressing human mutated 5HT2A receptor, AP-3), modified as follows: tube A was prepared by mixing 16 μg DNA (e.g., pCMV vector; pCMV vector AP-1 cDNA, etc.) in 1.0 ml serum free DMEM (Irvine Scientific, Irvine, Calif.); tube B was prepared by mixing 60 μl lipofectamine (Gibco BRL) in 1.0 ml serum free DMEM. Tubes A and B were then admixed by inversions (several times), followed by incubation at room temperature for 30 min. The admixture is referred to as the "transfection mixture". Plated 293 cells were washed with 10 ml Serum Free DMEM, followed by addition of 11 ml Serum Free DMEM. 2.0 ml of the transfection mixture was then added to the cells, followed by incubation for 5 hrs at 37° C./5% CO2. On day 3, cells were trypsinized and counted, followed by plating of 1×10^6 cells/well (12-well plates). Cells were permitted to adhere to the wells for 8 hrs, followed by one wash with 1×PBS. Thereafter, 0.5 μCi ^3 H-inositol in 1 ml inositol-free DMEM was added per well.
On day 4, the cells were washed with 1.5 ml PBS and then 0.9 ml of assay medium was added containing inositol-free/serum free media, 10 μM pargyline, 10 mM lithium chloride, for 5 min in 37° C./5% CO2 followed by 100 μl addition of candidate compound diluted in the same material. The cells were then incubated for 120 minutes at 37° C. […]

[3] = Bar catalepsy test in rats (extrapyramidal side effect analysis); format: in vivo, rat (male Sprague-Dawley)
5HT2 receptors [4] = assay: DOI locomotor activity test in rats (DOI inhibition study), intraperitoneal test compound; format: in vivo, rat (male Sprague-Dawley); details: i.p. 30 min before DOI (0.3 mg/kg s.c.)
Procedure: (§1) FIG. 3 provides a graphic summary of dose-response results from in vivo analysis of compound 116082 in a 1-(2,5-dimethoxy-4-iodophenyl)-2-aminopropane ("DOI") inhibition study (fine movement; ambulation; and animal rearing outcome measures). 116082 was administered 30 min prior to DOI. Animals were placed in locomotor activity cages 10 min after DOI administration and activity was measured for 10 min. Results are presented as total activity counts over the 10 min of exposure to the locomotor activity apparatus.
as §1, with “FIG. 4” for “FIG. 3”, “compound 116081” for “compound 116082”, “a DOI” for “a 1-(2,5-dimethoxy-4-iodophenyl)-2-aminopropane ("DOI")”, “measures). 116081” for “measures). 116082”
Assessment of 5-HT2 receptor antagonism in vivo was made by using the DOI locomotor activity test in rats as described by Krebs-Thomson (Psychopharmacology, 140:69-74, 1998).
Motor function was assessed by using automated locomotor activity cages. The rats were placed in a standard rodent cage surrounded by photocell beams, which allow for automated recording of motor activity. […]

5HT2 receptors [5] = assay: DOI inhibition study in rats, oral administration of test compound (oral availability); format: in vivo, rat
Procedure: (§2) FIG. 6 provides a graphic summary of the effects of oral administration of 116082 and 116081 in a DOI inhibition study in rats. Values represent the mean±SEMs (n=6/group). #P<0.05 vs. vehicle/vehicle, *P<0.05 vs. vehicle/DOI, Student t-test.
(§3) Based upon the in vivo data developed, oral bioavailability of compounds […] was considered. The compounds were administered by oral gavage at a dose of 50 mg/kg, 30 min prior to DOI in rats (see Example 11A, supra). Animals were placed in the locomotor activity cages 10 min after DOI administration and activity was measured for 10 min. Results, presented in FIG. 6, provide total activity counts over the 10 min of exposure to the locomotor activity apparatus.

[6] = as above; format: in vivo, rat; details: in vivo; rat; 50 mg/kg oral vs 10 mg/kg i.p., inferred from DOI test
Procedure: as §2, §3

[7] = system: human 5HT2A receptor compared with human 5HT2C receptor; assay: Selectivity for 5HT2A over 5HT2C receptor (as measured by IC50 values); format: binding
[8] = format: in vivo, rat (male Sprague-Dawley); details: i.p.; total activity counts over 120 min after MK-801
Procedure: FIG. 7 provides a graphic summary of the reversal of MK-801-induced hyperactivity using 116081 (7A) and clozapine (7B). […] 116081 produced a significant reversal of the effect of MK-801 at a dose of 25 μmol/kg (10 mg/kg). Results are presented as total activity counts over the 120 min of exposure to the locomotor activity apparatus after administration of MK-801. Data (mean±SEM) were analyzed by ANOVA followed by Dunnett's test (n=6-8/group).
Because part of the symptomatology of schizophrenia may be related to altered glutamate transmission at the NMDA receptor, the reversal of MK-801-induced hyperlocomotor activity in rodents has been used routinely as an animal model for detecting potential antipsychotic activity (O'Neill et al., Pharmacology Biochem. Behav., 63: 237-243, 1999). Thus, this test was used to determine potential antipsychotic properties of 116081 in vivo.
Motor activity was assessed using automated locomotor activity cages as described above (Example 11(A), supra.). Male Sprague-Dawley rats (250-350 g body weight) were administered test compounds (i.p.) and placed in the locomotor activity cages for 30 min of habituation. Following habituation,animals were administered MK-801 (0.5 μmol/kg=0.17 mg/kg, s.c.) and then immediately placed back into the locomotor activity cages, and activity was measured for 120 min. A reversal of MK-801-induced motor activity (as shown by a significant […] of ambulation) in rats is considered to be predictive of the ability of the test compound to reverse psychotic symptoms.

5HT2 receptors [9] = details: peripheral administration, 0.3 mg/kg; cited from earlier work

C[C@]12N[C@H](Cc3ccccc31)c1ccccc12 [MK-801]
effect of MK-801 alone on locomotor activity and stereotypy [1]: induces significant increases in locomotor activity and stereotypy

Cn1cc(Br)c(-c2cccc(NC(=O)Nc3ccc(F)cc3)c2)n1 [Compound 116082, {[3-(4-bromo-1-methylpyrazol-3-yl)phenyl]amino}-N-(4-fluorophenyl)carboxamide]
IP3 % of Control ([2]; 10 μM test compound, triplicate, control without test compound): 11%
profile in in vitro functional assays ([2]; in vitro functional assays): selective 5HT2A inverse agonist properties
extra-pyramidal side effects ([3]; at a dose 8 times greater than the dose required to block 5HT2A receptors in vivo): does not induce extra-pyramidal side effects in rats
induction of catalepsy ([3]; i.p., 10 to 80 mg/kg): does not induce catalepsy in rats
time spent on the bar ([3]; i.p., 10 to 80 mg/kg, 60 min before test): did not induce a dose-dependent increase in time spent on the bar
selectivity ratio ([3]; rat, in vivo, ip, bar test versus DOI test, rats, read-out: dose without extra-pyramidal side effects relative to dose required to block 5HT2A receptors in vivo): 8
reversal of DOI-induced motor dysfunction (5HT2 receptors [4]): beneficially reverses DOI-induced motor dysfunction
oral efficacy compared with intraperitoneal administration (5HT2 receptors [5]; 50 mg/kg oral vs 10 mg/kg i.p.): as efficacious as a 10 mg/kg dose of the same compounds administered intraperitoneally
reversal of DOI-induced motor dysfunction, oral (5HT2 receptors [5]; oral gavage 50 mg/kg, 30 min prior to DOI): reversed DOI-induced motor dysfunction in rats
oral activity (5HT2 receptors [5]; rat, DOI test, 50 mg/kg oral): orally active
bioavailability [6]: ≥ 20%
selectivity preference for the 5HT2A receptor compared with the 5HT2C receptor [7]: 100 fold

CN1CCN(C2=Nc3cc(Cl)ccc3Nc3ccccc32)CC1 [clozapine, reference compound]
attenuation of MK-801-induced hyperactivity (ambulations) [8]: dose-dependently attenuated MK801-induced hyperactivity

COc1cc(CC(C)N)c(OC)cc1I (stereo not drawn) [DOI, 1-(2,5-dimethoxy-4-iodophenyl)-2-aminopropane]
motor function effect of DOI alone (5HT2 receptors [9]): produces motor dysfunction in rats as shown by a decrease in ambulation
